Measured values as given in EP0390673A1, “5-Acyl-benzoxazolinone derivatives, processes for their preparation and pharmaceutical compositions containing them” (ADIR ET COMPAGNIE, priority 1989, dated 1990).

System: souris
Test: Analgesic activity, Siegmund test (phenyl-p-benzoquinone-induced stretching)
Assay type: in vivo
Settings: Mus musculus; oral, 1 hour before i.p. phényl-p-benzoquinone 0,02 %; stretches counted between minutes 5 and 10; read-out: ED₅₀, dose entraînant une activité de 50%
Excerpt: L'activité sur la douleur a été recherchée chez la souris (23-25 g) selon un protocole dérivé de la technique décrite par SIEGMUND (SIEGMUND E.A., R.A. CADMUS & GOLU, J. Pharm. Exp. Ther. 119, 1874, 1954). Les souris, réparties par randomisation en lots de 12 animaux, ont reçu le traitement par voie orale (excipient pour les témoins) 1 heure avant l'injection intra-péritonéale d'une solution hydroalcoolique de phényl-p-benzoquinone (Sigma) à 0,02 %. Les étirements sont dénombrés entre la 5ème et 10ème minute après l'injection.
Le pourcentage d'activité obtenu a été évalué pour chaque dose (% de diminution du nombre d'étirements chez les traités par rapport aux témoins). Une ED₅₀, dose entraînant une activité de 50%, a été déterminée pour chaque produit.

Structure (SMILES): O=C(c1ccccc1)c1ccc2oc(=O)[nH]c2c1 [Exemple 1, BENZOYL-5 BENZOXAZOLINONE]
- ED50: ~5 mg/kg
